Laboratory results reported in patent publication US9029325B2, “Amylin analogues and pharmaceutical compositions thereof” (Novo Nordisk A/S, priority 2011, dated 2015).
Starred links: 1 amine or outer side, 2 acyl side, 3 side chain; linkers in the order of their positions; H or OH if unused. Positions of bridges follow the written chain, without caps; N, C: chain ends. Residues, ends and D or L forms follow the SMILES beside them. *: point of attachment. C20 diacid = O=C(O)CCCCCCCCCCCCCCCCCCC(=O)*; γGlu = O=C(O)[C@H](CCC(=O)[*:2])N[*:1]

Experiment: Assay (I) efficacy testing on appetite (food intake), ad libitum fed rat model
Format: in vivo, Sprague Dawley (SD) rats
Details: 3 nmol/kg
Excerpt: Sprague Dawley (SD) rats from Taconic Europe, Denmark are used for the experiments. The rats have a body weight 200-250 g at the start of experiment. The rats arrive at least 10-14 days before start of experiment to allow acclimatization to experimental settings. During this period the animals are handled at least 2 times. After arrival rats are housed individually for one week in a reversed light/dark phase (meaning that lights are off during daytime and on during nighttime) […]. Since rats are normally active and eat their major part of their daily food intake during the dark period, rats are dosed in the morning right before lights are turned off. This set-up results in the lowest data variation and highst test sensitivity. The experiment is conducted in the rats' home cages and rats have free access to food and water througout the acclimatization period and the experiment period. Each dose of derivative is tested in a group of 5-8 rats. A vehicle group of 6-8 rats is included in each set of testing. Rats are dosed once according to body weight with a 0.01-3 mg/kg solution administered intraperitoneally (ip), orally (po) or subcutaneously (sc). The time of dosing is recorded for each group. After dosing, the rats are returned to their home cages, where they then have access to food and water. The food consumption is recorded individually continuously by on-line registration or manually every hour for 7 hours, and then after 24 h and sometimes 48 h. At the end of the experimental session, the animals are euthanised.
The individual data are recorded in Microsoft excel sheets. Outliers are excluded after applying the Grubbs statistical evaluation test for outliers, and the result is presented graphically using the GraphPad Prism program.

| Structure (SMILES) | Food intake reduction 0-24 h 3 nmol/kg (%) | Food intake reduction 24-48 h 3 nmol/kg (%) |
| --- | --- | --- |
| CC[C@H](C)[C@H](NC(=O)[C@@H]1CCCN1C(=O)CNC(=O)[C@H](Cc1ccccc1)NC(=O)[C@H](CC(N)=O)NC(=O)[C@H](CC(N)=O)NC(=O)[C@H](CO)NC(=O)[C@H](CO)NC(=O)[C@H](CCCNC(=N)N)NC(=O)[C@H](Cc1c[nH]cn1)NC(=O)[C@H](CC(C)C)NC(=O)[C@H](Cc1ccccc1)NC(=O)[C@H](CCC(=O)O)NC(=O)[C@H](C)NC(=O)[C@H](CC(C)C)NC(=O)[C@H](CCCNC(=N)N)NC(=O)[C@H](CCC(N)=O)NC(=O)[C@@H](NC(=O)[C@H](C)NC(=O)[C@@H]1CSSC[C@H](NC(=O)CC[C@H](NC(=O)CCCCCCCCCCCCCCCCCCC(=O)O)C(=O)O)C(=O)NCC(=O)N[C@@H]([C@@H](C)O)C(=O)N[C@@H](C)C(=O)N[C@@H]([C@@H](C)O)C(=O)N1)[C@@H](C)O)C(=O)N[C@@H](CC(C)C)C(=O)N1CCC[C@H]1C(=O)N1CCC[C@H]1C(=O)N[C@H](C(=O)N[C@@H](CCC(=O)O)C(=O)N[C@H](C(=O)NCC(=O)N[C@@H](CO)C(=O)NCC(=O)N[C@H](C(=O)N[C@@H](Cc1ccc(O)cc1)C(N)=O)[C@@H](C)O)C(C)C)[C@@H](C)O [compound 3] ({C20 diacid-γGlu}-CGTATCATQRLAEFLHRSSNNFGPILPPTEVGSGTY-NH2; disulfide 1-6 (inferred); C-terminus assumed) | 37 | 32 |
| CC[C@H](C)[C@H](NC(=O)[C@H](CCC(=O)O)NC(=O)CNC(=O)[C@H](Cc1ccccc1)NC(=O)[C@H](CC(N)=O)NC(=O)[C@H](CC(N)=O)NC(=O)[C@H](CO)NC(=O)[C@H](CO)NC(=O)[C@H](CCCNC(=N)N)NC(=O)[C@H](Cc1c[nH]cn1)NC(=O)[C@H](CC(C)C)NC(=O)[C@H](Cc1ccccc1)NC(=O)[C@H](CCC(=O)O)NC(=O)[C@H](C)NC(=O)[C@H](CC(C)C)NC(=O)[C@H](CCCNC(=N)N)NC(=O)[C@H](CCC(N)=O)NC(=O)[C@@H](NC(=O)[C@H](C)NC(=O)[C@@H]1CSSC[C@H](NC(=O)[C@H](Cc2c[nH]cn2)NC(=O)CC[C@H](NC(=O)CCCCCCCCCCCCCCCCCCC(=O)O)C(=O)O)C(=O)N[C@@H](CC(N)=O)C(=O)N[C@@H]([C@@H](C)O)C(=O)N[C@@H](C)C(=O)N[C@@H]([C@@H](C)O)C(=O)N1)[C@@H](C)O)C(=O)N[C@@H](CC(C)C)C(=O)N[C@@H](CO)C(=O)N[C@@H](CCCNC(=N)N)C(=O)N[C@H](C(=O)N[C@@H](CC(N)=O)C(=O)N[C@H](C(=O)NCC(=O)N[C@@H](CO)C(=O)N[C@@H](CC(N)=O)C(=O)N[C@H](C(=O)N[C@@H](Cc1ccc(O)cc1)C(N)=O)[C@@H](C)O)C(C)C)[C@@H](C)O [compound 7] ({C20 diacid-γGlu}-HCNTATCATQRLAEFLHRSSNNFGEILSRTNVGSNTY-NH2; disulfide 2-7 (inferred); C-terminus assumed) | 53 | 46 |
